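All cell lines were grown in 96-well plates and treated with compound for 48 hours. GI50 is the concentration that inhibits growth by half.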 The source made the active and inactive calls. No stated cut-off is given here; in the data, active = GI50 up to about 1.1 µM and inactive = higher.
What was measured:
Test in all cases: NCI-60 cell line screen, 48 h
MCF7 = test system: MCF7
RXF 393 = test system: RXF 393
PC-3 = test system: PC-3
NCI-H522 = test system: NCI-H522
A549 = test system: A549
Hs-578T = test system: Hs-578T
TK-10 = test system: TK-10
IGROV-1 = test system: IGROV-1
RPMI-8226 = test system: RPMI-8226
SK-OV-3 = test system: SK-OV-3
KM12 = test system: KM12
BT-549 = test system: BT-549
A498 = test system: A498
EKVX = test system: EKVX
Malme-3M = test system: Malme-3M
LOX IMVI = test system: LOX IMVI
T47D = test system: T47D
DU-145 = test system: DU-145
HCT-15 = test system: HCT-15
CAKI-1 = test system: CAKI-1
OVCAR-5 = test system: OVCAR-5
MDA-MB-435 = test system: MDA-MB-435
CCRF-CEM = test system: CCRF-CEM
ACHN = test system: ACHN
COLO 205 = test system: COLO 205
K562 = test system: K562
SW-620 = test system: SW-620
HCC 2998 = test system: HCC 2998
786-0 = test system: 786-0
OVCAR-4 = test system: OVCAR-4
OVCAR-8 = test system: OVCAR-8
NCI-H23 = test system: NCI-H23
UACC-62 = test system: UACC-62
NCI-H460 = test system: NCI-H460
HL-60 = test system: HL-60
U-251 = test system: U-251
HOP-62 = test system: HOP-62
MOLT-4 = test system: MOLT-4
SK-MEL-28 = test system: SK-MEL-28
SF-268 = test system: SF-268
SF-539 = test system: SF-539
M14 = test system: M14
SNB-75 = test system: SNB-75
SK-MEL-2 = test system: SK-MEL-2
HCT-116 = test system: HCT-116
UO-31 = test system: UO-31
OVCAR-3 = test system: OVCAR-3
UACC-257 = test system: UACC-257
SK-MEL-5 = test system: SK-MEL-5
NCI-H226 = test system: NCI-H226
NCI/ADR-RES = test system: NCI/ADR-RES
SF-295 = test system: SF-295
HT-29 = test system: HT-29
SR = test system: SR
HOP-92 = test system: HOP-92
MDA-MB-231 = test system: MDA-MB-231
SNB-19 = test system: SNB-19
MDA-N = test system: MDA-N
SN12C = test system: SN12C

## CN(C)C1C(=O)C(C(N)=O)=C(O)C2(O)C(O)=C3C(=O)c4c(O)cccc4C(C)(O)C3CC12 (centres undefined)
MCF7
  GI50: > 100 µM (inactive)
RXF 393
  GI50: 66.5 µM (inactive)
PC-3
  GI50: 76.7 µM (inactive)
NCI-H522
  GI50: 86.7 µM (inactive)
A549
  GI50: 86.1 µM (inactive)
Hs-578T
  GI50: 63.4 µM (inactive)
TK-10
  GI50: > 100 µM (inactive)
IGROV-1
  GI50: 93.3 µM (inactive)
RPMI-8226
  GI50: 81.7 µM (inactive)
SK-OV-3
  GI50: 55.6 µM (inactive)
KM12
  GI50: > 100 µM (inactive)
BT-549
  GI50: 64 µM (inactive)
A498
  GI50: 52.2 µM (inactive)
EKVX
  GI50: > 100 µM (inactive)
Malme-3M
  GI50: 86.1 µM (inactive)
LOX IMVI
  GI50: 59 µM (inactive)
T47D
  GI50: > 100 µM (inactive)
DU-145
  GI50: > 100 µM (inactive)
HCT-15
  GI50: 81.1 µM
CAKI-1
  GI50: 62.4 µM (inactive)

## NC(N)=NCCC[C@H](N)C(=O)NCC(=O)N[C@@H](CC(=O)O)c1ncc(NC(=O)C(F)(F)F)o1
OVCAR-5
  GI50: > 25 µM (inactive)
MDA-MB-435
  GI50: > 25 µM (inactive)
MCF7
  GI50: > 25 µM (inactive)
RXF 393
  GI50: > 25 µM (inactive)
CCRF-CEM
  GI50: > 25 µM (inactive)
ACHN
  GI50: > 25 µM (inactive)
PC-3
  GI50: > 25 µM (inactive)
NCI-H522
  GI50: > 25 µM (inactive)
A549
  GI50: > 25 µM (inactive)
Hs-578T
  GI50: > 25 µM (inactive)
COLO 205
  GI50: > 25 µM (inactive)
TK-10
  GI50: > 25 µM (inactive)
IGROV-1
  GI50: > 25 µM (inactive)
K562
  GI50: > 25 µM (inactive)
SW-620
  GI50: > 25 µM (inactive)
HCC 2998
  GI50: 17.8 µM (inactive)
786-0
  GI50: > 25 µM (inactive)
OVCAR-4
  GI50: > 25 µM (inactive)
SK-OV-3
  GI50: > 25 µM (inactive)
OVCAR-8
  GI50: > 25 µM (inactive)
NCI-H23
  GI50: > 25 µM (inactive)
KM12
  GI50: > 25 µM (inactive)
UACC-62
  GI50: > 25 µM (inactive)
NCI-H460
  GI50: > 25 µM (inactive)
HL-60
  GI50: > 25 µM (inactive)
U-251
  GI50: > 25 µM (inactive)
HOP-62
  GI50: > 25 µM (inactive)
MOLT-4
  GI50: > 25 µM (inactive)
BT-549
  GI50: > 25 µM (inactive)
A498
  GI50: > 25 µM (inactive)
SK-MEL-28
  GI50: > 25 µM (inactive)
EKVX
  GI50: > 25 µM (inactive)
SF-268
  GI50: > 25 µM (inactive)
SF-539
  GI50: > 25 µM (inactive)
Malme-3M
  GI50: > 25 µM (inactive)
M14
  GI50: > 25 µM (inactive)
LOX IMVI
  GI50: > 25 µM (inactive)
SNB-75
  GI50: > 25 µM (inactive)
T47D
  GI50: > 25 µM (inactive)
SK-MEL-2
  GI50: > 25 µM (inactive)
HCT-116
  GI50: > 25 µM (inactive)
UO-31
  GI50: > 25 µM (inactive)
OVCAR-3
  GI50: > 25 µM (inactive)
DU-145
  GI50: > 25 µM (inactive)
UACC-257
  GI50: > 25 µM (inactive)
SK-MEL-5
  GI50: > 25 µM (inactive)
NCI-H226
  GI50: > 25 µM (inactive)
NCI/ADR-RES
  GI50: > 25 µM (inactive)
SF-295
  GI50: > 25 µM (inactive)
HCT-15
  GI50: > 25 µM
HT-29
  GI50: > 25 µM (inactive)

## CC(NC1=NCCO1)c1cccc([N+](=O)[O-])c1 (centres undefined)
OVCAR-5
  GI50: > 100 µM (inactive)
MDA-MB-435
  GI50: > 100 µM (inactive)
MCF7
  GI50: > 100 µM (inactive)
RXF 393
  GI50: > 100 µM (inactive)
CCRF-CEM
  GI50: > 100 µM (inactive)
ACHN
  GI50: > 100 µM (inactive)
SR
  GI50: > 100 µM (inactive)
PC-3
  GI50: > 100 µM (inactive)
NCI-H522
  GI50: > 100 µM (inactive)
A549
  GI50: > 100 µM (inactive)
Hs-578T
  GI50: > 100 µM (inactive)
COLO 205
  GI50: > 100 µM (inactive)
TK-10
  GI50: > 100 µM (inactive)
IGROV-1
  GI50: > 100 µM (inactive)
K562
  GI50: > 100 µM (inactive)
SW-620
  GI50: > 100 µM (inactive)
RPMI-8226
  GI50: > 100 µM (inactive)
HOP-92
  GI50: 30 µM (inactive)
HCC 2998
  GI50: > 100 µM (inactive)
786-0
  GI50: > 100 µM (inactive)
MDA-MB-231
  GI50: > 100 µM (inactive)
SNB-19
  GI50: > 100 µM (inactive)
OVCAR-4
  GI50: > 100 µM (inactive)
SK-OV-3
  GI50: > 100 µM (inactive)
OVCAR-8
  GI50: > 100 µM (inactive)
NCI-H23
  GI50: > 100 µM (inactive)
KM12
  GI50: > 100 µM (inactive)
UACC-62
  GI50: > 100 µM (inactive)
NCI-H460
  GI50: > 100 µM (inactive)
HL-60
  GI50: > 100 µM (inactive)
U-251
  GI50: > 100 µM (inactive)
HOP-62
  GI50: > 100 µM (inactive)
MOLT-4
  GI50: 88.7 µM (inactive)
A498
  GI50: > 100 µM (inactive)
SK-MEL-28
  GI50: > 100 µM (inactive)
EKVX
  GI50: > 100 µM (inactive)
SF-268
  GI50: > 100 µM (inactive)
MDA-N
  GI50: > 100 µM (inactive)
SF-539
  GI50: > 100 µM (inactive)
Malme-3M
  GI50: > 100 µM (inactive)
M14
  GI50: > 100 µM (inactive)
LOX IMVI
  GI50: > 100 µM (inactive)
SNB-75
  GI50: > 100 µM (inactive)
T47D
  GI50: > 100 µM (inactive)
SK-MEL-2
  GI50: > 100 µM (inactive)
HCT-116
  GI50: > 100 µM (inactive)
UO-31
  GI50: > 100 µM (inactive)
OVCAR-3
  GI50: > 100 µM (inactive)
DU-145
  GI50: > 100 µM (inactive)
SN12C
  GI50: > 100 µM (inactive)
UACC-257
  GI50: > 100 µM (inactive)
SK-MEL-5
  GI50: > 100 µM (inactive)
NCI-H226
  GI50: > 100 µM (inactive)
NCI/ADR-RES
  GI50: > 100 µM (inactive)
SF-295
  GI50: > 100 µM (inactive)
HCT-15
  GI50: > 100 µM
CAKI-1
  GI50: > 100 µM (inactive)
HT-29
  GI50: > 100 µM (inactive)

Source: ChEMBL document CHEMBL1201862, “PubChem BioAssay data set” (2004)
